Experimental data taken from US8778871B2 (Takeda Pharmaceutical Company Limited, priority 2004, dated 2014).
Non-standard residues stand in square brackets, D forms with d. Residues, ends and D or L forms follow the SMILES beside them. No end group written: not given here. *: point of attachment. Phe(4-F) = N[C@@H](Cc1ccc(F)cc1)C(=O)O; Arg(Me) = CNC(=N)NCCC[C@H](N)C(=O)O; Hydrocinnamoyl = O=C(CCc1ccccc1)*; Bz = O=C(c1ccccc1)*; GABA = NCCCC(=O)O; azaGly = NNC(=O)O

Tests used:
hOT7T175 [1] = molecular target: T1, hOT7T175 (Homo sapiens, UniProt Q969F8); assay: Intracellular Ca ion level-increasing activity using FLIPR (180 seconds; specific activity to Metastin (1-54)); format: cell-based; conditions: hOT7T175/CHO, change in intracellular calcium ion level for 180 seconds, Tables 21-23
T1 construct: expressed in transfected cells

hOT7T175 [2] = molecular target: T2, hOT7T175 (Homo sapiens, UniProt Q969F8, L364H); format: cell-based; conditions: hOT7T175/CHO, FLIPR, evaluation for 40 seconds after initiation of the reaction
T2 construct: expressed in transfected cells
Procedure: The intracellular Ca ion level-increasing activity was measured using FLIPR as in TEST EXAMPLE 2.

[3] = Blood testosterone level decreasing effect in mature male rat (2 mM peptide solution, ALZET osmotic pump); format: in vivo; conditions: 2 mM peptide solution in distilled water, ALZET osmotic pump s.c., 6 days, Tables 28 and 29
Procedure: (§1) This peptide solution was filled in 5 ALZET osmotic pumps (Model 2001, 0.2 ml in volume, release rate: 0.001 ml/hr, DURECT Corporation). The ALZET pumps filled with the peptide solution were implanted subcutaneously in 5 CD(SD)IGS male rats of 9 weeks old after birth (Charles River Japan, Inc.) on the back under ether anesthesia by one pump for one animal. For negative control, distilled water (Otsuka Pharmaceutical Co., Ltd.) was filled in 5 ALZET osmotic pumps, which were similarly implanted in 5 male CD(SD)IGS rats (Charles River Japan, Inc.), respectively. These pump-implanted rats were fed for 6 days under normal feeding conditions. After weighing, the animal was decapitated to collect blood. After 0.03 ml/ml blood of aprotinin solution (Trasylol, Bayer) containing 0.1 mg/ml EDTA.2Na was added to blood, the mixture was centrifuged at 1,800 G for 25 minutes to isolate/recover plasma. From the plasma obtained, 0.05 ml was applied to radioimmunoassay (DPC.Total Testosterone Kit, Diagnostic Products Corporation) to measure the plasma testosterone level of each rat. The value below the limit of measurement (0.04 ng/ml of plasma level) in radioimmunoassay was treated as 0. A mean value of the testosterone levels from 5 rats receiving the peptide was calculated and a relative value (percent) of the mean value to a mean value from 5 rats receiving distilled water.

[4] = Blood testosterone level decreasing effect in mature male rat (0.1 mM peptide solution); format: in vivo
Procedure: as §1
In a manner similar to TEST EXAMPLE 14, evaluation was made using 0.1 mM peptide solution and a part of the results obtained are shown in TABLE 30.

hOT7T175 [5] = molecular target: T2, hOT7T175; assay: Intracellular Ca ion level-increasing activity using FLIPR (180 seconds; specific activity to Metastin (1-54)); format: cell-based; conditions: hOT7T175/CHO, relative to Metastin (1-54) = 1
[6] = Action of reducing testosterone level in blood in mature male rat (1 mM peptide in 50% DMSO, ALZET osmotic pump); format: in vivo; conditions: 1 mM peptide in 50% DMSO aqueous solution, ALZET osmotic pump s.c., six days
Procedure: The peptide was encapsulated in five ALZET osmotic pump (Model 2001, 0.2 ml of volume, releasing rate 0.001 ml/hr, DURECT Corporation). The ALZET pumps encapsulated with the peptide solution were implanted to dorsal subcutaneous of five male CD (SD) IGS rat at nine weeks age (Charles River Japan, Inc.) anesthesized with ether for one pump to one rat. Separately, for negative controls, the ALZET osmotic pumps encapsulated with distilled water were implanted to five male CD (SD) IGS rat (Charles River Japan, Inc.) The rats were bred for six days under the normal conditions. After weighing, blood was collected by decapitation. To 1 ml of blood, 0.03 ml of aprotinin (Trasylol, Byer) solution containing 0.1 g/ml EDTA 2Na was added. The plasma was isolated by centrifugation at 1,800×g for 25 minutes and collected. The thus obtained plasma, 0.05 ml was effected by radioimmunoassay. (DPC Total Testosterone Kit, Diagnostic Products Corporation) to measure testosterone level in blood of each rat. The value beneath measuring limit of radioimmunoassay (0.04 ng/ml as concentration of plasma) was treated as zero. The mean values for testosterone level of five rats, to which the peptide was given, was calculated and the relative value (percentage) for the mean values of testosterone level of five rats, to which distilled watrer was given, was estimated.

T2 sequence (Q969F8 whole entry L364H): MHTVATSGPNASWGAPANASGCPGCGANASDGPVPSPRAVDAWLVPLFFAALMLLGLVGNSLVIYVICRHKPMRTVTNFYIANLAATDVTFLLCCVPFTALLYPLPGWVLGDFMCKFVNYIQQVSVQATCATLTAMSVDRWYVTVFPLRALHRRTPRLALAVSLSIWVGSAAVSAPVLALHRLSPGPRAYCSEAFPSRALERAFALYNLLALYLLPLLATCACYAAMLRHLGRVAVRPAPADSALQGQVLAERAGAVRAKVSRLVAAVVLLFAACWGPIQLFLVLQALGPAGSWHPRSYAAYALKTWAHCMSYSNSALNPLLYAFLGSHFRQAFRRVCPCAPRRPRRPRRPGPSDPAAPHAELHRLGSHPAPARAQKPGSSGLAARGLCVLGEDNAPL
T1 sequence (Q969F8 whole entry L364H): as above

## 3-(3-Indolyl)propionyl-Phe-AzaGly-Leu-Arg(Me)-Trp-NH2 [Compound No. 354]
hOT7T175 [1]
  intracellular Ca ion level-increasing activity [specific activity to Metastin (1-54)]: 10
hOT7T175 [2]
  Specific Act. (EC50/MS10 EC50): 0.8
[3]
  Teststerone level in Blood: 43%

## 3-(3-Pyridyl)propionyl-Asn-Ser-Phe-AzaGly-Leu-Arg(Me)-Trp-NH2 [Compound No. 386]
hOT7T175 [1]
  intracellular Ca ion level-increasing activity [specific activity to Metastin (1-54)]: 7
hOT7T175 [2]
  Specific Act. (EC50/MS10 EC50): 2.9
[3]
  Teststerone level in Blood: 23%

## 3-Phenylpropionyl-Asn-Hyp-Phe-AzaGly-Leu-Arg(Me)-Trp-NH2 [Compound No. 517]
hOT7T175 [2]
  Specific Act. (EC50/MS10 EC50): 1.0
[3]
  Teststerone level in Blood: 79%

## 3-Phenylpropionyl-Asn-Ser-Phe(4F)-AzaGly-Leu-Arg(Me)-Trp-NH2 [Compound No. 508]
hOT7T175 [1]
  intracellular Ca ion level-increasing activity [specific activity to Metastin (1-54)]: 10
hOT7T175 [2]
  Specific Act. (EC50/MS10 EC50): 1.0
[3]
  Teststerone level in Blood: 9%

## 3-Phenylpropionyl-Asn-Ser-Phe-AzaGly-Leu-Arg(Me)-Trp-NH2 [Compound No. 499]
hOT7T175 [1]
  intracellular Ca ion level-increasing activity [specific activity to Metastin (1-54)]: 10
hOT7T175 [2]
  Specific Act. (EC50/MS10 EC50): 1.4
[3]
  Teststerone level in Blood: 2%
[4]
  Teststerone level in Blood: 32%

## 3-Phenylpropionyl-Asn-Thr-Phe-AzaGly-Leu-Arg(Me)-Trp-NH2 [Compound No. 505]
hOT7T175 [1]
  intracellular Ca ion level-increasing activity [specific activity to Metastin (1-54)]: 20
hOT7T175 [2]
  Specific Act. (EC50/MS10 EC50): 0.7
[3]
  Teststerone level in Blood: 40%

## 4-Pyridinecarbonyl-Phe-AzaGly-Leu-Arg(Me)-Trp-NH2 [Compound No. 436]
hOT7T175 [1]
  intracellular Ca ion level-increasing activity [specific activity to Metastin (1-54)]: 5
hOT7T175 [2]
  Specific Act. (EC50/MS10 EC50): 1.4
[3]
  Teststerone level in Blood: 35%

## CNC(=N)NCCC[C@H](NC(=O)[C@H](CC(C)C)NC(=O)CNC(=O)[C@H](Cc1ccccc1)NC(=O)[C@H](CO)NC(=O)[C@H](CC(N)=O)NC(=O)[C@H](Cc1c[nH]c2ccccc12)NC(=O)[C@H](CC(N)=O)NC(=O)[C@H](N)Cc1ccc(O)cc1)C(=O)N[C@@H](Cc1ccccc1)C(N)=O [Compound No. 141]
hOT7T175 [5]
  Specific Act. (intracellular Ca ion level-increasing activity, specific activity to Metastin (1-54)): 10
hOT7T175 [2]
  Specific Act. (EC50/MS10 EC50): 1.6
[3]
  Teststerone level in Blood: 31%

## CC(C)C[C@H](NC(=O)NNC(=O)[C@H](Cc1ccccc1)NC(=O)[C@H](CO)NC(=O)[C@H](CC(N)=O)NC(=O)[C@H](Cc1c[nH]c2ccccc12)NC(=O)[C@H](CC(N)=O)NC(=O)[C@@H](N)Cc1ccc(O)cc1)C(=O)N[C@@H](CCCNC(=N)N)C(=O)N[C@@H](Cc1ccccc1)C(N)=O [Compound No. 176, Tyr-Asn-Trp-Asn-Ser-Phe-AzaGly-Leu-Arg-Phe-NH2]
hOT7T175 [5]
  Specific Act. (intracellular Ca ion level-increasing activity, specific activity to Metastin (1-54)): 5
hOT7T175 [2]
  Specific Act. (EC50/MS10 EC50): 1.3
[3]
  Teststerone level in Blood: 12%

## CNC(=N)NCCC[C@H](NC(=O)[C@H](CC(C)C)NC(=O)NNC(=O)[C@H](Cc1ccccc1)NC(=O)[C@H](CO)NC(=O)[C@H](CC(N)=O)NC(=O)CCc1ccccc1)C(=O)N[C@@H](Cc1ccccc1)C(N)=O [Compound No. 269, 3-Phenylpropionyl-Asn-Ser-Phe-AzaGly-Leu-Arg(Me)-Phe-NH2] (Hydrocinnamoyl-NSF[azaGly]L[Arg(Me)]F-NH2)
hOT7T175 [1]
  intracellular Ca ion level-increasing activity [specific activity to Metastin (1-54)]: 3
hOT7T175 [2]
  Specific Act. (EC50/MS10 EC50): 3.4
[3]
  Teststerone level in Blood: 7%

## Ac-[dY][dW]NVF[azaGly]L[Arg(Me)]W-NH2 [Compound No. 564]
hOT7T175 [2]
  Specific Act. (EC50/MS10 EC50): 0.5
[4]
  Teststerone level in Blood: 66%
[6]
  Testosterone level in Blood: 2%

## Bz-NSF[azaGly]L[Arg(Me)]W-NH2 [Compound No. 509]
hOT7T175 [1]
  intracellular Ca ion level-increasing activity [specific activity to Metastin (1-54)]: 20
hOT7T175 [2]
  Specific Act. (EC50/MS10 EC50): 2.0
[3]
  Teststerone level in Blood: 2%

## Bz-NS[Phe(4-F)][azaGly]L[Arg(Me)]W-NH2 [Compound No. 545]
hOT7T175 [2]
  Specific Act. (EC50/MS10 EC50): 1.1
[4]
  Teststerone level in Blood: 37%
[6]
  Testosterone level in Blood: 2%

## D-Tyr-D-Pya(4)-Ala-Ser-Phe-AzaGly-Leu-Arg(Me)-Trp-NH2 [Compound No. 492]
hOT7T175 [1]
  intracellular Ca ion level-increasing activity [specific activity to Metastin (1-54)]: 5
hOT7T175 [2]
  Specific Act. (EC50/MS10 EC50): 1.1
[3]
  Teststerone level in Blood: 65%

## D-Tyr-D-Pya(4)-Asn-Ser-Cha-Gly-Leu-Arg(Me)-Trp-NH2 [Compound No. 496]
hOT7T175 [1]
  intracellular Ca ion level-increasing activity [specific activity to Metastin (1-54)]: 5
hOT7T175 [2]
  Specific Act. (EC50/MS10 EC50): 0.7
[3]
  Teststerone level in Blood: 3%

## D-Tyr-D-Pya(4)-Asn-Ser-Phe-AzaGly-Leu-Arg(Me)-Trp-NH2 [Compound No. 385]
hOT7T175 [1]
  intracellular Ca ion level-increasing activity [specific activity to Metastin (1-54)]: 10
hOT7T175 [2]
  Specific Act. (EC50/MS10 EC50): 0.7
[3]
  Teststerone level in Blood: 2%
[4]
  Teststerone level in Blood: 33%

## D-Tyr-D-Pya(4)-Asn-Val-Phe-AzaGly-Leu-Arg(Me)-Trp-NH2 [Compound No. 515]
hOT7T175 [1]
  intracellular Ca ion level-increasing activity [specific activity to Metastin (1-54)]: 10
hOT7T175 [2]
  Specific Act. (EC50/MS10 EC50): 1.0
[3]
  Teststerone level in Blood: 2%

## GuAmb-Phe-AzaGly-Leu-Arg(Me)-Trp-NH2 [Compound No. 334]
[3]
  Teststerone level in Blood: 40%

## H-YNWNSFGLRW-NH2 [Compound No. 134]
hOT7T175 [5]
  Specific Act. (intracellular Ca ion level-increasing activity, specific activity to Metastin (1-54)): 30
hOT7T175 [2]
  Specific Act. (EC50/MS10 EC50): 0.5
[3]
  Teststerone level in Blood: 50%

## [dR][GABA][dY][dW]NTF[azaGly]L[Arg(Me)]W-NH2 [Compound No. 555]
hOT7T175 [2]
  Specific Act. (EC50/MS10 EC50): 1.5
[4]
  Teststerone level in Blood: 73%
[6]
  Testosterone level in Blood: 2%

## [dY][dW]NSF[azaGly]L[Arg(Me)]W-NH2 [Compound No. 540]
hOT7T175 [2]
  Specific Act. (EC50/MS10 EC50): 0.7
[4]
  Teststerone level in Blood: 55%

## [dY][dW]NTF[azaGly]L[Arg(Me)]W-NH2 [Compound No. 512]
hOT7T175 [1]
  intracellular Ca ion level-increasing activity [specific activity to Metastin (1-54)]: 30
hOT7T175 [2]
  Specific Act. (EC50/MS10 EC50): 0.8
[3]
  Teststerone level in Blood: 2%
[4]
  Teststerone level in Blood: 38%
